We go through 13 compounds from patent US20190046600A1, “COMPOSITIONS AND USES THEREOF” (priority 2016, published 2019).

Square brackets hold non-standard residues; d marks the D form. Ends that are not written are not given here. Peptide text beside a SMILES is read from it. Phe(4-guanidino) = N=C(N)Nc1ccc(C[C@H](N)C(=O)O)cc1; Abu(4-SO3H) = N[C@@H](CCS(=O)(=O)O)C(=O)O

In assay [1] the test system is NCI-H460 human non-small cell lung cancer cells. Particulars: amphiphilic backbones of different length and composition; cited from earlier work.
Assay [2] concerns NCI-H460 cells. Description: HILR-001 with or without 30 nM Olaparib on NCI-H460, alamarBlue and CellTiter-Glo time course. Type of assay: cell-based, human. Particulars: HILR-001 as single agent, particularly evident at later time points. The procedure: At each time point cell viability was measured by two assay readouts, alamarBlue® and CellTiter-Glo. Conversion of alamarBlue® to a fluorescent product serves as a readout of the metabolic activity of cells, whereas CellTiter-Glo is based on quantification of the ATP present.
2) Cells were harvested and seeded into 96-well plates at 500 cells/well. 3) HILR-001 was made up from a 10 mM stock solution and added directly to cells in doubling dilutions starting at 200 μM. […] The total final DMSO concentration was 0.25%. 4) Cells were grown with compound for 24, 48, 72 or 96 hours at 37° C. 5% CO2 in a humidified atmosphere. 5) AlamarBlue® 10% (v/v) was then added and incubated for a further 4 hours, and fluorescent product detected using the BMG FLUOstar plate reader. 6) On duplicate plates the media was removed from the cells, CellTiter-Glo was diluted in PBS (1:10) and 100 μl added to the cells. 7) Plates were mixed on an orbital shaker for 2 minutes and incubated for a further 10 minutes at room temperature. Luminescent signal was then measured using the BMG FLUOstar plate reader.
A general note: Resazurin is reduced to fluorescent resorufin, in cell work by metabolically active cells.

The subject of the next assay is human cancer cell lines. Particulars: cited from earlier work; for bio-activity of cyclic peptide (active / inactive): PRGPRP warhead combined with non-amphiphilic backbone.
For assay [3], the system named is NCI-H460 cells. Particulars: 96 h.
Method: Methods measuring cell viability include the use of alamarBlue® cell viability reagent (Life Technologies, Inc.) (resazurin) with fluorescence detection.
1) NCI-H460 cells were grown in Ham's F12 media supplemented with 10% FBS. 2) Cells were harvested and seeded into 96-well plates at 500 cells/well. 3) Compounds were made up from stock solutions and added directly to cells in doubling dilutions starting at 200 μM. Final DMSO concentration was 0.2%. 4) Cells were grown with compound for 96 hours at 37° C. 5% CO2 in a humidified atmosphere. 5) A resazurin dye composition (AlamarBlue® cell viability reagent (Life Technologies, Inc.)) 10% (v/v) was then added and incubated for a further 4 hours, and fluorescent product detected using the BMG FLUOstar plate reader. 6) Media only background readings were subtracted before data were analysed using a 4-parameter logistic equation in GraphPad Prism.
Assay [4] concerns Lactate Dehydrogenase A [LDHA]. Description: LDH activity assay on lysates of treated NCI-H460 cells (Abcam ab102526). Type of assay: cell-based, human. Particulars: NCI-H460 cells treated 24 h or 96 h, normalised to protein; read-out: IC50 for inhibiting the activity of LDH. The procedure:
An LDH activity assay was conducted on samples derived from NCI-H460 cells treated with 2 test compounds (HILR-025 and HILR-030) for either 24h or 96h. […] Therefore a BCA assay was conducted to estimate the total amount of protein present in each LDH assay lysate and this was used to normalise the enzyme activity data. As an indication of cell viability, an Alamar blue assay was also carried out at both timepoints, to serve as an additional point of reference.
2) Cells were harvested and seeded into 96-well plates at either 500 cells/well (for the 96h timepoint) or 5000 cells/well for the 24h timepoint. […] 6) At the end of the assay (24 or 96h), Alamar blue 10% (v/v) was added to one set of plates, incubated for a further 4 hours, and fluorescent product detected using the BMG FLUOstar plate reader. […] 10) LDH activity was measured in the cleared lysates using an LDH activity kit (Abcam, ab102526). 11) After preparation of the LDH activity assay reactions, according to the manufacturer's instructions, absorbance at 450 nm was measured at the initial time to determine (A450)initial 12) Further absorbance readings were taken at 3 minute intervals for up to 15 minutes. […] 16) The LDH activity of each sample was determined by the following equation:
[formula] […] Protein content in remaining cleared lysates was determined using a BCA assay (ThermoScientific). • b. Data were analysed using GraphPad Prism. […]

The test system of assay [5] is NCI-H460 human non-small-cell lung cancer cells. Description: Cell survival with or without 2-deoxyglucose, alamarBlue. Type of assay: cell-based. To be noted: combination with 3.125 mmol 2-DOG versus alone. From the text: Since the compounds according to the invention appeared to be causing cell death by necrosis as a result of NAD/ATP depletion, it was hypothesised that their activity could be potentiated by administering the compounds with a glycolysis inhibitor. The cell killing ability of HILR-025 (SEQ ID NO: 15) and HILR-D-07 sodium salt (SEQ ID NO: 30) in the presence and absence of the glycolysis inhibitor 2-deoxyglucose (2-DOG) was therefore assayed.
NCI-H460 human non-small-cell lung cancer cells were contacted with HILR-025 or HILR-D-07 alone or in combination with 3.125 mmol 2-DOG and cell survival was determined using AlamaBlue® cell viability reagent (Life Technologies, Inc.) in accordance with the manufacturer's instructions.

In assay [6] the test system is NCI H460 Human Non-small cell lung cancer. In words: Light microscopy of treated cell cultures. To be noted: versus DMSO control. It counts as cell-based. The procedure: To investigate further the mechanism of action of the anionic warhead, cultures of NCI H460 Human Non-small cell lung cancer were exposed to HILR-025 and HILR-D-07 and observed using light microscopy. A comparative cell culture was treated with DMSO to provide a negative control.

As usually defined, the IC50 is the concentration that inhibits the measured activity by half.

As to `CC(C)C[C@@H]1NC(=O)[C@H](C)NC(=O)[C@H](C(C)C)NC(=O)[C@@H]2CCCN2C(=O)[C@H](CCCNC(=N)N)NC(=O)[C@@H]2CCCN2C(=O)CNC(=O)[C@H](CCCNC(=N)N)NC(=O)[C@@H]2CCCN2C(=O)[C@H](CC(C)C)NC(=O)[C@H](C)NC(=O)[C@H](CC(C)C)NC(=O)[C@H](CCCCN)NC(=O)[C@H](CC(C)C)NC(=O)[C@H](C)NC(=O)[C@H](CC(C)C)NC(=O)[C@H](CCCCN)NC1=O` [HILR-001] (cyclo(PRGPRPVALKLALKLAL)), the “killing NCI-H460 cells (active / inactive)” value in assay [1] is listed as “ACTIVE”. In addition, the “metabolic activity (alamarBlue)” value with NCI-H460 cells [2] is “dose dependent decrease”. Besides, in the assay with human cancer cell lines, the “selective killing of human cancer cell lines” value (“selective killing” for short) is reported as “selectively killed a wide range of human cancer cell lines”. Moreover, the 50% inhibitory concentration (IC50) with NCI-H460 cells [3] was found to be 98 µM. As to `CC(C)[C@@H]1NC(=O)[C@@H]2CCCN2C(=O)[C@H](CCCNC(=N)N)NC(=O)[C@@H]2CCCN2C(=O)CNC(=O)[C@H](CCCNC(=N)N)NC(=O)[C@@H]2CCCN2C(=O)[C@H](Cc2c[nH]c3ccccc23)NC(=O)[C@H](Cc2c[nH]c3ccccc23)NC(=O)[C@H](CCCNC(=N)N)NC(=O)[C@H](CCCNC(=N)N)NC(=O)[C@H](Cc2c[nH]c3ccccc23)NC(=O)[C@H](Cc2c[nH]c3ccccc23)NC(=O)[C@H](CCCNC(=N)N)NC(=O)[C@H](CCCNC(=N)N)NC(=O)[C@H](Cc2c[nH]c3ccccc23)NC(=O)[C@H](Cc2c[nH]c3ccccc23)NC1=O` [HILR-025] (cyclo(PRGPRPVWWRRWWRRWW)), the half-inhibitory concentration (IC50) in assay [4] turned out to be 16 µM; with NCI-H460 cells [3] it was 15 µM. Also, the “cell killing ability with 2-DOG” value in assay [5] is “enhanced by co-administration with 2-DOG”. Further, the cell morphology result in assay [6] was “Ring-shaped morphology”.

In the assay with NCI-H460 cells [3], `CC(C)[C@@H]1NC(=O)[C@@H]2CCCN2C(=O)[C@H](CCC(=O)O)NC(=O)[C@@H]2CCCN2C(=O)CNC(=O)[C@H](CCC(=O)O)NC(=O)[C@@H]2CCCN2C(=O)[C@H](Cc2c[nH]c3ccccc23)NC(=O)[C@H](Cc2c[nH]c3ccccc23)NC(=O)[C@H](CCCNC(=N)N)NC(=O)[C@H](CCCNC(=N)N)NC(=O)[C@H](Cc2c[nH]c3ccccc23)NC(=O)[C@H](Cc2c[nH]c3ccccc23)NC(=O)[C@H](CCCNC(=N)N)NC(=O)[C@H](CCCNC(=N)N)NC(=O)[C@H](Cc2c[nH]c3ccccc23)NC(=O)[C@H](Cc2c[nH]c3ccccc23)NC1=O` [HILR-D-02] (cyclo(PEGPEPVWWRRWWRRWW)) registered an IC50 of 38 µM. Still for that read-out and setting: to `CC(C)[C@@H]1NC(=O)[C@@H]2CCCN2C(=O)[C@H](CCS(=O)(=O)O)NC(=O)[C@@H]2CCCN2C(=O)CNC(=O)[C@H](CCS(=O)(=O)O)NC(=O)[C@@H]2CCCN2C(=O)[C@H](Cc2c[nH]c3ccccc23)NC(=O)[C@H](Cc2c[nH]c3ccccc23)NC(=O)[C@H](CCCNC(=N)N)NC(=O)[C@H](CCCNC(=N)N)NC(=O)[C@H](Cc2c[nH]c3ccccc23)NC(=O)[C@H](Cc2c[nH]c3ccccc23)NC(=O)[C@H](CCCNC(=N)N)NC(=O)[C@H](CCCNC(=N)N)NC(=O)[C@H](Cc2c[nH]c3ccccc23)NC(=O)[C@H](Cc2c[nH]c3ccccc23)NC1=O` [HILR-D-06] (cyclo(P[Abu(4-SO3H)]GP[Abu(4-SO3H)]PVWWRRWWRRWW)) belongs 25 µM. For the compound “-Pro-Glu-Gly-Pro-Glu-Pro- (PEGPEP; not fully specified; printed as -Pro-Glu-Gly-Pro-Glu-Pro-) [anionic hexapeptide, comparative peptide]”, in the assay on human cancer cell lines (linear hexapeptide, earlier study), the “activity of anionic hexapeptide” value was “inactive”.

As to “Cyc-[AAAGGGPRGPRPGGGAAA] (cyclic; Cyclic peptide; (1)..(18) cyclic peptide) [SEQ ID NO: 6]”, the “bio-activity of cyclic peptide (active / inactive)” value (“bio-activity … (active / inactive)” below) in the assay with human cancer cell lines was “SEQ ID NO: 6: Cyc-[AAAGGGPRGPRPGGGAAA]INACTIVE”. As for “Cyc-[AAGPGGPRGPRPGGPGAA] (cyclic; cyclic peptide; (1)..(18) cyclic peptide) [SEQ ID NO: 9]”, the “bio-activity … (active / inactive)” value with human cancer cell lines was “SEQ ID NO: 9: Cyc-[AAGPGGPRGPRPGGPGAA]INACTIVE”. For “Cyc-[GGGGGGPRGPRPGGGGGG] [SEQ ID NO: 7] (cyclic; cyclic peptide; (1)..(18) cyclic peptide)”, the “bio-activity … (active / inactive)” value in the assay on human cancer cell lines is “SEQ ID NO: 7: Cyc-[GGGGGGPRGPRPGGGGGG]INACTIVE”. Regarding “Cyc-[GGGGGGPRGPRPGGGGGG] [SEQ ID NO: 8] (cyclic; cyclic peptide; (1)..(18) cyclic peptide)”, the “bio-activity … (active / inactive)” value in the assay with human cancer cell lines was “SEQ ID NO: 8: Cyc-[GGGGGGPRGPRPGGGGGG]INACTIVE”. For the compound “Cyc-[PRGPRPVKLALKLALKFP] (cyclic; cyclic peptide; (1)..(18) cyclic peptide) [THR53]”, the “killing NCI-H460 cells (active / inactive)” value in assay [1] is on record as “ACTIVE”. Moreover, in the assay on human cancer cell lines, the “selective killing” value is “selectively killed a wide range of human cancer cell lines”. With “Cyc-[PRGPRPVKLALKLALKLAL] (cyclic; cyclic peptide; (1)..(19) cyclic peptide) [THR52]”, the “killing NCI-H460 cells (active / inactive)” value in assay [1] is recorded as “INACTIVE”. As for Cyc-[PRGPRPvalklalkalal] [THR79], the “selective killing” value in the assay with human cancer cell lines is “selectively killed a wide range of human cancer cell lines”. Consider “cyclo-[Pro-Hca-Gly-Pro-Hca-Pro-Val-Trp-Trp-Gpa-Gpa-Trp-Trp-Gpa-Gpa-Trp-Trp] (cyclo(P[Abu(4-SO3H)]GP[Abu(4-SO3H)]PVWW[Phe(4-guanidino)][Phe(4-guanidino)]WW[Phe(4-guanidino)][Phe(4-guanidino)]WW); SMILES CC(C)[C@@H]1NC(=O)[C@@H]2CCCN2C(=O)[C@H](CCS(=O)(=O)O)NC(=O)[C@@H]2CCCN2C(=O)CNC(=O)[C@H](CCS(=O)(=O)O)NC(=O)[C@@H]2CCCN2C(=O)[C@H](Cc2c[nH]c3ccccc23)NC(=O)[C@H](Cc2c[nH]c3ccccc23)NC(=O)[C@H](Cc2ccc(NC(=N)N)cc2)NC(=O)[C@H](Cc2ccc(NC(=N)N)cc2)NC(=O)[C@H](Cc2c[nH]c3ccccc23)NC(=O)[C@H](Cc2c[nH]c3ccccc23)NC(=O)[C@H](Cc2ccc(NC(=N)N)cc2)NC(=O)[C@H](Cc2ccc(NC(=N)N)cc2)NC(=O)[C@H](Cc2c[nH]c3ccccc23)NC(=O)[C@H](Cc2c[nH]c3ccccc23)NC1=O) [HILR-D-07]”, for which the “cell killing ability with 2-DOG” value in assay [5] was “enhanced by co-administration with 2-DOG”. Also, the cell morphology entry in assay [6] is listed as “Ring-shaped morphology”.
